Test results as given in patent US9271962B2 (NORTHEASTERN UNIVERSITY, priority 2008, dated 2016).

How the values were obtained:
[1] = molecular target: T1, hMGL (Homo sapiens, UniProt Q99685); assay: Fluorescent enzyme assay, MGL (AHMMCE hydrolysis); type: biochemical; conditions: AHMMCE substrate, screening assay; for inhibition at 0.01 µM: 10 nM inhibitor, read-out: % Inhibition of Enzyme by inhibitor, MGL, 10 nM; for inhibition at 1 µM: 1000 nM inhibitor
T1 construct: A full-length cDNA clone of the human MGL transcript variant 1; made in house; host or cells: E. coli BL21 (DE3)
T1 sequence (Q99685 2-303 limits assumed): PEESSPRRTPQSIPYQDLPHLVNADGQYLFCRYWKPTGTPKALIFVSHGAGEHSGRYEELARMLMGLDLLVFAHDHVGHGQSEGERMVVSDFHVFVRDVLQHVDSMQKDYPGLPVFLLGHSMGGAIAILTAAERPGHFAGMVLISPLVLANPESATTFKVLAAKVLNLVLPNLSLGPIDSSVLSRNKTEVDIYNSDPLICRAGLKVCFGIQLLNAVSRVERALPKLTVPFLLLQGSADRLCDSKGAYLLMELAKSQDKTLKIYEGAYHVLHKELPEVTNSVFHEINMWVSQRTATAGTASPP
Description: (§1) Some analogs were tested for their FAAH/MGL inhibitory activity, which is expressed as % of inhibition (Tables 2, 3, and 4 below). The percentage of inhibition results from three-point assay (three concentrations of inhibitor are used) and it is less accurate (preliminary screening) than the IC50/Ki values that are determined from eight-point assay (eight different concentrations of inhibitor were used). The percentage of inhibition describes the percentage by which the inhibitor reduces the velocity/rate of AAMCA (arachidonoyl-7-amino-4-methylcoumarin amide) or AHMMCE (arachidonoyl-7-hydroxy-6-methoxy-4-methylcoumarin ester) hydrolysis by FAAH or MGL respectively. The IC50 is the concentration of the inhibitor, which results in 50% inhibition of the velocity/rate of AAMCA (arachidonoyl 7-amino-4-methylcoumarin amide) hydrolysis by FAAH or AHMMCE (Arachidonoyl, 7-hydroxy-6-methoxy-4-methylcoumarin ester) hydrolysis by MGL. The Ki value is the affinity constant and describes the ability of the compounds to inhibit the function of FAAH or MGL. The lower the IC50/Ki values, the higher the affinity of the inhibitor for the enzyme and the higher its inhibitory activity. A detailed description of the methods used to test inhibitory activity of compounds is given below.
A full-length cDNA clone of the human MGL transcript variant 1 (gi: 51242951) was obtained from OriGene Technologies (Rockville, Md.). The coding part of the MGL sequence (except the translation initiation codon ATG) was amplified by a polymerase chain reaction (PCR) using forward […] and reverse […] primers containing PmlI and SacI restriction enzyme recognition sites, respectively. iProof high-fidelity DNA polymerase (Bio-Rad, Hercules, Calif.) was used in the PCR amplification with 33 cycles, each consisting of denaturation at 94° C. for 10 s, annealing at 55° C. for 33 s, and extension at 72° C. for 1 min. The PCR product and pET45b vector were digested with PmlI and SacI restriction enzymes, and the vector was dephosphorylated with CIP followed by in-gel purification using the MinElute Gel Extraction Kit (Qiagen Corp., Valencia, Calif.). The fragment was inserted into the vector directly downstream after the 6 histidine and valine codons, generating the construct pET45His6hMGL for expression of hMGL containing an N-terminal His6-tag. GC10 E. coli cells were used for DNA transformation and plasmid propagation. Mini- and midi-scale plasmid DNA preparations were performed using a GenElute Plasmid Miniprep Kit (Sigma) and PureYield Plasmid Midiprep System (Promega, Madison, Wis.), respectively. In-frame vector-fragment junctions and the coding sequence of the recombinant gene were confirmed by sequencing. The pET45His6hMGL construct was transformed into BL21 (DE3) and Origami (DE3) E. coli expression strains (Novagen, Madison, Wis.).
A single E. coli BL21 (DE3) colony containing the pET45His6hMGL plasmid was inoculated into 12 mL of Luria broth-ampicillin medium and grown overnight with shaking (250 rpm) at 37° C. The next morning, 10 mL of this culture was inoculated into 1 L of fresh Luria broth-ampicillin and allowed to grow until culture turbidity reached an (OD)600 of 0.6-0.8, at which time expression from the T7 promoter was induced by adding isopropyl-β-D-thio-galactopyranoside (1 mM). After 5 h induction, the cells were harvested by centrifugation at 5,000 g for 10 min at 4° C., washed with PBS, and held at −80° C. Five grams (wet-weight) of cells were resuspended in 50 mL lysis buffer (100 mM NaCl; 50 mM Tris, pH 8.0) supplemented with Triton X-100 (0.5%), lysozyme (0.2 mg/mL), and DNase I (25 μg/ml) and disrupted on ice by three, one-min sonication cycles, each consisting of 1-sec sonication bursts at 50 W power separated from each other by a 2-sec interval (Vibra-Cell 500 W, Sonics, Newtown, Conn.). The cell lysate was centrifuged at 10,000 g for 30 min at 4° C. […]

[2] = molecular target: T2, ΔTM rFAAH (Rattus norvegicus, UniProt P97612); assay: Fluorescent enzyme assay, FAAH (AAMCA hydrolysis); type: biochemical; conditions: AAMCA substrate, screening assay; for inhibition at 0.01 µM: 10 nM inhibitor; for inhibition at 1 µM: 1000 nM inhibitor
T2 construct: 15 ug of ΔTM rFAAH (cell lysate obtained by recombinant procedure); made in house
T2 sequence (P97612 30-579 limits assumed): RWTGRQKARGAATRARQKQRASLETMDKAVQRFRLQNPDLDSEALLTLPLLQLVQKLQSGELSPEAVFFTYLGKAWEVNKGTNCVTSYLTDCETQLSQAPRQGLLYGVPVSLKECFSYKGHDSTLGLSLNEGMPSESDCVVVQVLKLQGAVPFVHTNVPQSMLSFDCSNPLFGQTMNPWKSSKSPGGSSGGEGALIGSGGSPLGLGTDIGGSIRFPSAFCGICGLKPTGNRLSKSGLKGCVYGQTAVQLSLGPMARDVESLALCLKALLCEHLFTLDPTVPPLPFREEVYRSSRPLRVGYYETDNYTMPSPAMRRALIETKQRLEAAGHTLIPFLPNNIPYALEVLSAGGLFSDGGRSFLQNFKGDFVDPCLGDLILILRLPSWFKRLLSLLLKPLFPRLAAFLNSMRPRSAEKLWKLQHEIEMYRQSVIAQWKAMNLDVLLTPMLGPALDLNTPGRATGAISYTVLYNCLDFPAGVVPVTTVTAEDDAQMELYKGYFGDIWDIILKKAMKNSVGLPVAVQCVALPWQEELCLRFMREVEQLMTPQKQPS
Description: as §1
The enzyme (FAAH and MGL) assays were performed in 96 well plates (Coster #3650) in a total volume of 200 uL. Fluorogenic substrate AAMCA (arachidonoyl 7-amino-4-methylcoumarin amide) for FAAH and AHMMCE (arachidonoyl 7-hydroxy-6-methoxy-4-methylcoumarin ester) for MGL were used using BioTek Synergy HT Microplate Reader. Compounds and substrates were dissolved in DMSO provide a 10 mM stock solution and kept as a stock solution at −20° C. until used for assay. Stock solutions were thawed and reconstituted in 50:50 DMSO/assay buffer to a final DMSO concentration per well below 8%. This ensures that the compounds and substrate are in solution during assay. […] Appropriate substrate was added to adjust the final concentration in each well to 20 uM for FAAH (2× Km) and 10 uM for MGL (1×KM). Fluorescence readings were performed at λex=360/λem=460 for 4 h using Kinetic assay protocol at every 20 min (the fluorescent product coumarin produced is quantitated by this procedure). The readings at 3 h for FAAH and 2 h for MGL (linear maximum hydrolysis kinetics of enzyme on substrate) were used to calculate percent inhibition based on controls. Compounds which had more than 50 percent inhibition at 10 uM were selected for dose response study to determine IC50 values. The dose response at 8 concentration points was performed as with the screening assay except that compounds were serially diluted to 8 concentration points which were chosen based on IC50 value, which were calculated from the screening assay results. Assays are run twice in triplicates and Graphpad Prism software is used to plot inhibition data to obtain IC50 values.

CN(C)C(=O)n1nnnc1Cc1ccc(Cl)cc1Cl [Compound 17b]
inhibition at 0.01 µM [1]: 97%
inhibition at 0.01 µM [2]: 86%

CN(C)C(=O)n1nnc(Cc2ccc(I)cc2)n1 [Compound 18a, 5-(4-iodobenzyl)-N,N-dimethyl-2H-tetrazole-2-carboxamide]
inhibition at 0.01 µM [1]: 97%
inhibition at 0.01 µM [2]: 92%

CN(C)C(=O)n1nnnc1Cc1ccc(I)cc1 [Compound 18b]
inhibition at 0.01 µM [1]: 64%
inhibition at 0.01 µM [2]: 86%

CN(C)C(=O)n1nnc(Cc2ccc(OC(F)(F)F)cc2)n1 [Compound 19a]
inhibition at 0.01 µM [1]: 99%
inhibition at 0.01 µM [2]: 92%

CN(C)C(=O)n1nnnc1Cc1ccc(OC(F)(F)F)cc1 [Compound 19b]
inhibition at 0.01 µM [1]: 76%
inhibition at 0.01 µM [2]: 91%

CN(C)C(=O)n1nnc(Cc2ccc(C(F)(F)F)cc2)n1 [Compound 20a, N,N-dimethyl-5-[4-(trifluoromethyl)benzyl]-2H-tetrazole-2-carboxamide]
inhibition at 0.01 µM [1]: 98%
inhibition at 0.01 µM [2]: 93%

CN(C)C(=O)n1nnnc1Cc1ccc(C(F)(F)F)cc1 [Compound 20b]
inhibition at 0.01 µM [1]: 6%
inhibition at 0.01 µM [2]: 90%

CN(C)C(=O)n1nnc(Cc2ccc(Cl)cc2)n1 [Compound 21a]
inhibition at 0.01 µM [1]: 97%
inhibition at 0.01 µM [2]: 93%

CN(C)C(=O)n1nnnc1Cc1ccc(Cl)cc1 [Compound 21b]
inhibition at 0.01 µM [1]: 54%
inhibition at 0.01 µM [2]: 93%

CN(C)C(=O)n1nnc(Cc2ccc([N+](=O)[O-])cc2)n1 [Compound 22a, N,N-dimethyl-5-(4-nitrobenzyl)-2H-tetrazole-2-carboxamide]
inhibition at 0.01 µM [1]: 97%
inhibition at 0.01 µM [2]: 92%

CN(C)C(=O)n1nnnc1Cc1ccc([N+](=O)[O-])cc1 [Compound 22b]
inhibition at 0.01 µM [1]: 22%
inhibition at 0.01 µM [2]: 85%

CSc1ccc(Cc2nnn(C(=O)N(C)C)n2)cc1 [Compound 23a]
inhibition at 0.01 µM [1]: 98%
inhibition at 0.01 µM [2]: 91%

CSc1ccc(Cc2nnnn2C(=O)N(C)C)cc1 [Compound 23b]
inhibition at 0.01 µM [1]: 60%
inhibition at 0.01 µM [2]: 89%

COc1ccc(Cc2nnn(C(=O)N(C)C)n2)cc1 [Compound 24a, 5-(4-methoxybenzyl)-N,N-dimethyl-2H-tetrazole-2-carboxamide]
inhibition at 0.01 µM [1]: 21%
inhibition at 0.01 µM [2]: 47%

COc1ccc(Cc2nnnn2C(=O)N(C)C)cc1 [Compound 24b]
inhibition at 1 µM [1]: 96%
inhibition at 1 µM [2]: 100%

CC(=O)Nc1ccc(Cc2nnn(C(=O)N(C)C)n2)cc1 [Compound 25a]
inhibition at 1 µM [1]: 99%
inhibition at 1 µM [2]: 100%

CC(=O)Nc1ccc(Cc2nnnn2C(=O)N(C)C)cc1 [Compound 25b]
inhibition at 1 µM [1]: 90%
inhibition at 1 µM [2]: 88%

Cc1ccc(Cc2nnn(C(=O)N(C)C)n2)cc1 [Compound 26a, N,N-dimethyl-5-(4-methylbenzyl)-2H-tetrazole-2-carboxamide]
inhibition at 0.01 µM [1]: 96%
inhibition at 0.01 µM [2]: 93%

Cc1ccc(Cc2nnnn2C(=O)N(C)C)cc1 [Compound 26b]
inhibition at 0.01 µM [1]: 23%
inhibition at 0.01 µM [2]: 85%

CN(C)C(=O)n1nnc2ccccc21 [Compound 28, N,N-dimethyl-1H-benzo[d][1,2,3]-triazole-1-carboxamide]
inhibition at 0.01 µM [1]: 30%
inhibition at 0.01 µM [2]: 67%

CN(C)C(=O)n1cnnc1 [Compound 29, N,N-dimethyl-4H-1,2,4-triazole-4-carboxamide]
inhibition at 1 µM [1]: 79%
inhibition at 1 µM [2]: 92%

CN(C)C(=O)n1ccc(-c2ccccc2)n1 [Compound 30, N,N-dimethyl-3-phenyl-1H-pyrazole-1-carboxamide]
inhibition at 1 µM [1]: 11%
inhibition at 1 µM [2]: 23%

CN(C)C(=O)N1CC(C(C)(C)C)OC1=O (stereo not drawn) [Compound 31, 5-tert-butyl-N,N-dimethyl-2-oxooxazolidine-3-carboxamide]
inhibition at 1 µM [1]: 66%
inhibition at 1 µM [2]: 63%

CN(C)C(=O)N1CC(Cc2ccccc2)OC1=O (stereo not drawn) [Compound 32, 5-benzyl-N,N-dimethyl-2-oxooxazolidine-3-carboxamide]
inhibition at 1 µM [1]: 3%
inhibition at 1 µM [2]: 5%
